Marks after values point to notes of the source that are not given here.
Tests used:
[1] = system: Chinese hamster V79-379 lung fibroblasts; test: Uptake of phthalocyanines into V79 cells; conditions: for Uptake Into V79 Cells, 1 μM / Uptake Into V79 Cells, 4 μM: 18 hours; for n Moles/10^6 Cells/μM (composite uptake value): V79 cells, average of all data, asterisk: listed value is for 1 μM, average would be higher
Outline: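 V79-379 cells were incubated with phthalocyanine for 18 h, typically at 1, 2 and/or 4 μM. Cells collected on filters were extracted into ethanol and absorbance read at the peak, usually 668 nm. Values are nmol per 10^6 cells, using ε 2.93×10^5.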

[2] = system: RIF-1 (radiation-induced fibrosarcoma) tumors; test: PDT of RIF-1 implanted tumors; assay type: in vivo, C3H/HeN mice; design: key to Tumor Responses at 24 hours: complete: no evidence of any tumor mass in any animal; only the scar from the photodynamic therapy was evident.; near complete: evidence of any tumor mass in four or five animals; only some tumor mass in one or two animals.; substantial: a significant tumor shrinkage occurred in all animals. In some animals the tumor response was complete, yet in others the response was not complete.; moderate: some tumor shrinkage was evident in some animals. In animals with some tumor shrinkage, scar formation was evident.; slight: some tumor decrease occurred in one or two mice; conditions: for Tumor Responses at 24 hours / Doubling Time of Initial Tumor Volume after PDT: 1 mg/kg in corn oil, 675 nm; for Tumor Responses at 24 hours: 135 J/cm^2, light 24 h after dosing; for Doubling Time of Initial Tumor Volume after PDT: 135 J/cm^2, controls 4 days
RIF-1 tumors = test: RIF-1 implanted tumors, PcIV followed by multiple exposures to light; assay type: in vivo, C3H/HeN mice
Protocol: To overcome the regrowth, RIF-1 tumors were implanted in C3H/HeN mice, and the mice were treated with PcIV followed by multiple exposures to light. For multiple exposures to light to be successful, the tumor tissue must retain sufficient levels of the photosensitizer over the exposure period.

[3] = Retention of Pc IV in tumor tissue (pharmacokinetic data); assay type: in vivo; conditions: after administration
[4] = system: skin lesions (early mycosis fungoides, squamous cell carcinoma); test: Topical PcIV-PDT of skin lesions in patients; assay type: in vivo, human
Protocol: PcIV solution concentrations were either 0.01 mg/mL or 0.05 mg/mL. One hour after administration of the PcIV solution, the skin lesions were exposed to a 675 nm laser, dose ranging from 50-100 J/cm^2. […] Two patients felt some heat over the treatment site during the first few minutes of laser exposure. […] Because Pc 4 is a photosensitizer, individual patient sun sensitivity was monitored by serial phototesting using solar simulated radiation. […] (see FIGS. 10a and 10b).

[5] = eleven patients, topical PcIV-PDT

For `CCN(CCC[Si](C)(C)O[Si]1(O[Si](C)(C)CCCN(CC)CCN(C)C)n2c3c4ccccc4c2N=C2N=C(N=c4c5ccccc5c(n41)=NC1=NC(=N3)c3ccccc31)c1ccccc12)CCN(C)C` [Compound XVIII, SiPc[OSi(CH3)2(CH2)3N(CH2CH3)(CH2)2N(CH3)2]2], the “Uptake Into V79 Cells, 1 μM” value [1] was 0.3 ± 0.1 n Moles/10^6 cells, the “Uptake Into V79 Cells, 4 μM” value [1] was 3.6 ± 0.6 n Moles/10^6 cells and the “n Moles/10^6 Cells/μM (composite uptake value)” value [1] was 0.3* n Moles/10^6 Cells/μM. The “Tumor Responses at 24 hours” value [2] was “near complete” and the “Doubling Time of Initial Tumor Volume after PDT” value (from here on “Doubling Time”) [2] was 12 days.
For `CN(C)CCC[Si](C)(C)O[Si]1(O)n2c3c4ccccc4c2N=C2N=C(N=c4c5ccccc5c(n41)=NC1=NC(=N3)c3ccccc31)c1ccccc12` (stereo not shown) [Compound IV, HOSiPcOSi(CH3)2(CH2)3N(CH3)2], the “Tumor Responses at 24 hours” value [2] was “near complete”, the “Doubling Time” value [2] was 16 days and the “Histological examination of treated tumors” value ([2]; RIF-1 tumors after PDT) was “presence of apoptotic bodies in the tumor”. For the same compound, the “% of Mice Surviving” value (RIF-1 tumors; 1 mg/kg in DPPC liposomes, 30 days, day of exposure 2) was 100%, the “% of Mice Surviving” value (RIF-1 tumors; 1 mg/kg in DPPC liposomes, 30 days, days of exposure 2, 3, 4, 5, and 6) was 0% and the “% of Mice Surviving” value (RIF-1 tumors; 1 mg/kg in DPPC liposomes, 30 days, days of exposure 2, 3, and 4) was 0%. The “% of Mice Surviving” value (RIF-1 tumors; 1 mg/kg in DPPC liposomes, 30 days, days of exposure 2-6) was 0%, the “% of Mice Surviving” value (RIF-1 tumors; 1 mg/kg in DPPC liposomes, 30 days, days of exposure 2 and 3) was 100% and the “% of Mice Surviving” value (RIF-1 tumors; 1 mg/kg in DPPC liposomes, 30 days, days of exposure 2 and 7) was 100%. The “% of Mice Surviving” value (RIF-1 tumors; 1 mg/kg in DPPC liposomes, 120 days, days of exposure 2, 3, 4, 5, and 6) was 0%, the “% of Mice Surviving” value (RIF-1 tumors; 1 mg/kg in DPPC liposomes, 120 days, days of exposure 2, 3, and 4) was 0% and the “% of Mice Surviving” value (RIF-1 tumors; 1 mg/kg in DPPC liposomes, 120 days, days of exposure 2-6) was 0%. For the same compound, the “% of Mice Surviving” value (RIF-1 tumors; 1 mg/kg in corn oil, 15 days, day of exposure 2) was 100%, the “% of Mice Surviving” value (RIF-1 tumors; 1 mg/kg in corn oil, 15 days, days of exposure 2, 3, 4, 5, and 6) was 100% and the “% of Mice Surviving” value (RIF-1 tumors; 1 mg/kg in corn oil, 15 days, days of exposure 2, 3, and 4) was 100%. The “% of Mice Surviving” value (RIF-1 tumors; 1 mg/kg in corn oil, 15 days, days of exposure 2-6) was 100%, the “% of Mice Surviving” value (RIF-1 tumors; 1 mg/kg in corn oil, 15 days, days of exposure 2 and 3) was 100% and the “% of Mice Surviving” value (RIF-1 tumors; 1 mg/kg in corn oil, 15 days, days of exposure 2 and 7) was 100%. For the same compound, the “tumor regrowth at sacrifice” value (RIF-1 tumors; DPPC liposomes, three to five irradiations, 300 days after the light treatment) was “no evidence of tumor regrowth”, the tumor cure (RIF-1 tumors; entrapped in DPPC liposomes, mice irradiated three, four or five times at an interval of 24 hours) was “complete tumor cure” and the tumor regrowth (RIF-1 tumors; given in corn oil, all the multiple exposure protocols) was “regrowth of tumors was evident 15 days after photodynamic therapy”. The “retention in tumor tissue” value [3] was “retained in tumor tissue even after 7 days”, the “clinical response of lesions (erythema and infiltration)” value [4, 5] was “Two patients showed a minimal decrease in erythema and infiltration of their lesions” and the cures [4, 5] was “No cures have been achieved to date”. The “TUNEL positivity in lesional skin biopsies” value ([4]; one patient with some clinical response, 24 hours after treatment) was “increase in TUNEL positivity along the superficial portion of the lesion”, the “changes in sunburn threshold or minimum erythema dose (MED)” value ([4]; serial phototesting with solar simulated radiation) was “No significant changes were observed” and the adverse effects ([4]; topical 0.01 or 0.05 mg/mL, 675 nm laser 50-100 J/cm^2 one hour later, up to two weeks) was “No significant adverse effects were observed”.
With `CN(C)CCC[Si](C)(C)O[Si]1(O[Si](C)(C)CCCN(C)C)n2c3c4ccccc4c2N=C2N=C(N=c4c5ccccc5c(n41)=NC1=NC(=N3)c3ccccc31)c1ccccc12` [Compound XII, SiPc[OSi(CH3)2(CH2)3N(CH3)2]2] the “Uptake Into V79 Cells, 1 μM” value [1] was 2.1 ± 1.2 n Moles/10^6 cells, the “Uptake Into V79 Cells, 4 μM” value [1] was 4.6 ± 1.5 n Moles/10^6 cells and the “n Moles/10^6 Cells/μM (composite uptake value)” value [1] was 1.6 n Moles/10^6 Cells/μM. The “Tumor Responses at 24 hours” value [2] was “complete” and the “Doubling Time” value [2] was 20 days.

— patent US8211883B2, “Topical delivery of phthalocyanines” (priority 2004, dated 2012)
